Measured values from patent US20260234139A1, “PGDH INHIBITORS AND METHODS OF MAKING AND USING” (Epirium Bio Inc., priority 2023, published 2026).

How the values were obtained:
A549 = A549 EC50 (cell assay, method not described); type: cell-based
15-PGDH/HPGD = biological target: T1, 15-PGDH/HPGD (Homo sapiens, UniProt P15428); test: hPGDH inhibitor screening biochemical assay; conditions: 10 nM enzyme, 15 μM Prostaglandin E2, 0.25 mM NAD, fluorescence ex/em 340/485 nm
T1 construct: purchased R&D System 5660-DH
T1 sequence (P15428 1-266): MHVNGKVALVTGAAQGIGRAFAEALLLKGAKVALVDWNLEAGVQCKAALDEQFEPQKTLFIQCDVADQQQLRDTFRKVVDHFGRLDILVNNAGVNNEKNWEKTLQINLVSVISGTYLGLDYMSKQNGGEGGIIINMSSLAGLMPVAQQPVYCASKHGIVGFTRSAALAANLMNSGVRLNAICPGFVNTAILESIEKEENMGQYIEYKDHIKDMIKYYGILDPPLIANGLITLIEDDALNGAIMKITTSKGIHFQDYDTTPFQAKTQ
In short: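 Recombinant 15-PGDH (10 nM) preincubated with compound 10 min at 37° C, then 15 μM PGE2 and 0.25 mM NAD⁺ added for 10 min at room temperature in 50 mM Tris-HCl pH 7.5, 0.01% Tween 20. NADH fluorescence at ex/em 340/485 nm; 10-point dose response.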

Q: Which EC50 (A549; Homo sapiens, A549, A549) does the source give for `CC1(COC[C@@H](O)c2cnc3c(cnn3-c3ccc(C(=O)O)cc3)c2)CC1` [Compound 106B] here?
A: ≥ 1000 nM

Q: What about the IC50 (15-PGDH/HPGD) of the same molecule?
A: < 100 nM

Q: What does the source list for `CCOC1([C@@H](O)c2cnc3c(cnn3-c3ccc(C(=O)O)cc3)c2)CCC1` [Compound 85B]?
A: EC50 (A549; Homo sapiens, A549, A549): ≥ 1000 nM; IC50 (15-PGDH/HPGD): ≥ 1000 nM

Q: `O=C(O)c1ccc(-n2ccc3nc([C@@H](O)COC4CCC4)cnc32)cc1` [Compound 47A] was tested. Which EC50 (A549; Homo sapiens, A549, A549) did it give?
A: ≥ 1000 nM

Q: What about the IC50 (15-PGDH/HPGD) of the same molecule?
A: < 100 nM

Q: What does the source list for `O=C(O)c1ccc(-n2ncc3cc([C@H](O)C4COC4)ccc32)cc1` [Compound 120A]?
A: EC50 (A549; Homo sapiens, A549, A549): 100 to 1000 nM; IC50 (15-PGDH/HPGD): < 100 nM

Q: What does the source list for `CC1(OC[C@H](O)c2cnc3c(cnn3-c3ccc(C(=O)O)cc3)c2)CCC1` [Compound 90A]?
A: EC50 (A549; Homo sapiens, A549, A549): 100 to 1000 nM; IC50 (15-PGDH/HPGD): < 100 nM

Q: For `CC(C)OC[C@H](O)c1cnc2c(cnn2-c2ccc(C(=O)O)cc2)c1` [Compound 48A], which EC50 (A549; Homo sapiens, A549, A549) is on record?
A: 100 to 1000 nM

Q: What about the IC50 (15-PGDH/HPGD) of the same molecule?
A: < 100 nM

Q: What does the source list for `COCCNC(=O)c1ccc(-n2ncc3cc([C@@H](O)COC4CCC4)cnc32)cc1` [Compound 118A]?
A: EC50 (A549; Homo sapiens, A549, A549): < 100 nM; IC50 (15-PGDH/HPGD): < 100 nM

Q: What does the source list for `COC(C)(C)CC[C@@H](O)c1cnc2c(cnn2-c2cccc(-c3nnc[nH]3)c2)c1` [Compound 55B]?
A: EC50 (A549; Homo sapiens, A549, A549): < 100 nM; IC50 (15-PGDH/HPGD): < 100 nM

Q: What does the source list for `CC(C)C[C@@H](O)C(O)c1cnc2c(ccn2-c2cccc(-c3nnc[nH]3)c2)c1` (stereo in doubt) [Compound 3A, (1R,2R)-4-methyl-1-[1-[3-(4H-1,2,4-triazol-3-yl)phenyl]pyrrolo[2,3-b]pyridin-5-yl]pentane-1,2-diol]?
A: EC50 (A549; Homo sapiens, A549, A549): < 100 nM; IC50 (15-PGDH/HPGD): < 100 nM

Q: Which results are given for `COCC[C@@H](O)c1cnc2c(cnn2-c2cccc(-c3nnc[nH]3)c2)c1` [Compound 36A]?
A: EC50 (A549; Homo sapiens, A549, A549): < 100 nM; IC50 (15-PGDH/HPGD): < 100 nM

Q: Which results are given for `CC(C)C[C@H](O)C(O)c1cnc2c(ccn2-c2cccc(-c3nnc[nH]3)c2)c1` (stereo in doubt) [Compound 3B, (1S,2S)-4-methyl-1-[1-[3-(4H-1,2,4-triazol-3-yl)phenyl]pyrrolo[2,3-b]pyridin-5-yl]pentane-1,2-diol]?
A: EC50 (A549; A549): < 100 nM; IC50 (15-PGDH/HPGD): < 100 nM

Q: Which EC50 (A549; Homo sapiens, A549, A549) does the source give for `CCCOC(C)(C)[C@H](O)c1cnc2c(cnn2-c2cccc(-c3nnc[nH]3)c2)c1` [Compound 57A] here?
A: ≥ 1000 nM

Q: What about the IC50 (15-PGDH/HPGD) of the same molecule?
A: ≥ 1000 nM

Q: What does the source list for `CC(C)(O)[C@@H](O)c1cnc2c(cnn2-c2cccc(-c3nnc[nH]3)c2)c1` [Compound 33B, (S)-1-(1-(3-(4H-1,2,4-triazol-3-yl)phenyl)-1H-pyrazolo[3,4-b]pyridin-5-yl)-2-methylpropane-1,2-diol]?
A: EC50 (A549; Homo sapiens, A549, A549): ≥ 1000 nM; IC50 (15-PGDH/HPGD): 100 to 1000 nM

Q: Which EC50 (A549; Homo sapiens, A549, A549) does the source give for `CSc1cccc(-n2ncc3cc([C@@H](O)COC4CCC4)cnc32)c1` [Compound 122A] here?
A: ≥ 1000 nM

Q: What about the IC50 (15-PGDH/HPGD) of the same molecule?
A: < 100 nM

Q: How did the EC50 (A549; Homo sapiens, A549, A549) turn out when `CC(C)OC[C@@H](O)c1cnc2c(cnn2-c2ccc(CCCC(=O)O)cc2)c1` [Compound 66A] was run?
A: < 100 nM

Q: What about the IC50 (15-PGDH/HPGD) of the same molecule?
A: < 100 nM

Q: `CC(C)(O)C[C@H](O)c1cnc2c(cnn2-c2cccc(-c3nnc[nH]3)c2)c1` [Compound 43B] was tested. Which EC50 (A549; Homo sapiens, A549, A549) did it give?
A: < 100 nM

Q: What about the IC50 (15-PGDH/HPGD) of the same molecule?
A: < 100 nM

Q: With `CC(C)(C)OC[C@H](O)c1cnc2c(cnn2-c2cccc(-c3nnc[nH]3)c2)c1` [Compound 32A] as the molecule, how does the EC50 (A549; Homo sapiens, A549, A549) read?
A: ≥ 1000 nM

Q: And the IC50 (15-PGDH/HPGD)?
A: < 100 nM

Q: How did the EC50 (A549; Homo sapiens, A549, A549) turn out when `CC(C)(OCC(F)F)[C@@H](O)c1cnc2c(cnn2-c2cccc(-c3nnc[nH]3)c2)c1` [Compound 61A] was run?
A: < 100 nM

Q: What about the IC50 (15-PGDH/HPGD) of the same molecule?
A: < 100 nM

Q: With `CC(C)OC[C@@H](O)c1cnc2c(cnn2-c2ccc(C(=O)O)cc2)c1` [Compound 48B] as the molecule, how does the EC50 (A549; Homo sapiens, A549, A549) read?
A: < 100 nM

Q: What about the IC50 (15-PGDH/HPGD) of the same molecule?
A: < 100 nM

Q: Which results are given for `O[C@@H](COC1CC1)c1cnc2c(cnn2-c2cccc(-c3nnc[nH]3)c2)c1` [Compound 37A]?
A: EC50 (A549; Homo sapiens, A549, A549): 100 to 1000 nM; IC50 (15-PGDH/HPGD): < 100 nM

Q: For `CC(C)OC[C@@H](O)c1cnc2c(cnn2-c2ccc(CC(=O)O)cc2)c1` [Compound 71A], which EC50 (A549; Homo sapiens, A549, A549) is on record?
A: 100 to 1000 nM

Q: And the IC50 (15-PGDH/HPGD)?
A: 100 to 1000 nM

Q: Which EC50 (A549; Homo sapiens, A549, A549) does the source give for `O[C@H](c1cnc2c(ccn2-c2cc(Cl)cc(-c3nnc[nH]3)c2)c1)C1CCC(F)(F)CC1` [Compound 12B] here?
A: < 100 nM

Q: What about the IC50 (15-PGDH/HPGD) of the same molecule?
A: < 100 nM

Q: For `CC(C)OC[C@H](O)c1cnc2c(ccn2-c2ccc(C(=O)O)cc2)n1` [Compound 49A], which EC50 (A549; Homo sapiens, A549, A549) is on record?
A: ≥ 1000 nM

Q: And the IC50 (15-PGDH/HPGD)?
A: < 100 nM

Q: What does the source list for `CCCCC(OC)c1cnc2c(ccn2-c2cc(Cl)cc(-c3nnc[nH]3)c2)c1` (stereo not shown) [Compound 16]?
A: EC50 (A549; Homo sapiens, A549, A549): 100 to 1000 nM; IC50 (15-PGDH/HPGD): 100 to 1000 nM

Q: For `CC(C)OC[C@@H](O)c1cnc2c(cnn2-c2ccc3nc(N4CCOCC4)nn3c2)c1` [Compound 60A], which EC50 (A549; Homo sapiens, A549, A549) is on record?
A: < 100 nM

Q: And the IC50 (15-PGDH/HPGD)?
A: < 100 nM

Q: Which EC50 (A549; Homo sapiens, A549, A549) does the source give for `CC(C)OC[C@H](O)c1cnc2c(cnn2-c2ccc(OCC(=O)O)c(F)c2)c1` [Compound 74B] here?
A: ≥ 1000 nM

Q: What about the IC50 (15-PGDH/HPGD) of the same molecule?
A: 100 to 1000 nM

Q: With `CC1(C)CC(OC[C@H](O)c2cnc3c(cnn3-c3ccc(C(=O)O)nc3)c2)C1` [Compound 116A] as the molecule, how does the EC50 (A549; Homo sapiens, A549, A549) read?
A: ≥ 1000 nM

Q: What about the IC50 (15-PGDH/HPGD) of the same molecule?
A: 100 to 1000 nM

Q: With `CC(C)OC[C@H](O)c1cnc2c(cnn2-c2ccc3nc(N4CCOCC4)nn3c2)c1` [Compound 60B] as the molecule, how does the EC50 (A549; Homo sapiens, A549, A549) read?
A: 100 to 1000 nM

Q: What about the IC50 (15-PGDH/HPGD) of the same molecule?
A: ≥ 1000 nM

Q: What does the source list for `CC(C)(O)C[C@@H](O)c1cnc2c(cnn2-c2cccc(-c3nnc[nH]3)c2)c1` [Compound 43A]?
A: EC50 (A549; Homo sapiens, A549, A549): ≥ 1000 nM; IC50 (15-PGDH/HPGD): < 100 nM
